Source: the NIST ThermoML archive (doi:10.1021/je060271a)
Numbers after ± are expanded uncertainties.

Settings: 323.15 K, Liquid, Vibrating tube method

CCCCCCC(=O)OCC(COC(=O)CCCCCC)(COC(=O)CCCCCC)COC(=O)CCCCCC [pentaerythritol tetraheptanoate]
Settings	mass density [kg/m3]
102 kPa	955.7 ± 1.2
102.5 kPa	955.6 ± 1.2
102.8 kPa	955.6 ± 1.2
103.5 kPa	955.7 ± 1.2
104.8 kPa	955.6 ± 1.2
106.8 kPa	955.7 ± 1.2
109.1 kPa	955.7 ± 1.2
113.5 kPa	955.6 ± 1.2
119 kPa	955.5 ± 1.2
127.2 kPa	955.7 ± 1.2
130.7 kPa	955.6 ± 1.2
133.3 kPa	955.7 ± 1.2
136.2 kPa	955.6 ± 1.2
136.9 kPa	955.6 ± 1.2
138 kPa	955.7 ± 1.2
138.5 kPa	955.6 ± 1.2
139.2 kPa	955.7 ± 1.2
139.5 kPa	955.6 ± 1.2
140.6 kPa	955.6 ± 1.2
144.4 kPa	955.7 ± 1.2
144.9 kPa	955.7 ± 1.2
145.8 kPa	955.6 ± 1.2
147.5 kPa	955.7 ± 1.2
152.7 kPa	955.6 ± 1.2
153.6 kPa	955.7 ± 1.2
154.3 kPa	955.6 ± 1.2
155.5 kPa	955.8 ± 1.2
156.6 kPa	955.8 ± 1.2
157.4 kPa	955.7 ± 1.2
158.7 kPa	955.7 ± 1.2
159.7 kPa	955.7 ± 1.2
161.8 kPa	955.7 ± 1.2
163.2 kPa	955.6 ± 1.2
164.2 kPa	955.7 ± 1.2
165.3 kPa	955.8 ± 1.2
166.8 kPa	955.6 ± 1.2
168 kPa	955.8 ± 1.2
169.3 kPa	955.7 ± 1.2
170.8 kPa	955.7 ± 1.2
172 kPa	955.6 ± 1.2
173.3 kPa	955.7 ± 1.2
175 kPa	955.8 ± 1.2
176.4 kPa	955.7 ± 1.2
177.9 kPa	955.7 ± 1.2
179.7 kPa	955.6 ± 1.2
181.2 kPa	955.7 ± 1.2
182.8 kPa	955.8 ± 1.2
184.6 kPa	955.9 ± 1.2
186.5 kPa	955.7 ± 1.2
188 kPa	955.7 ± 1.2
190.1 kPa	955.7 ± 1.2
193.9 kPa	955.7 ± 1.2
196.2 kPa	955.6 ± 1.2
241.4 kPa	955.7 ± 1.2
245.4 kPa	955.7 ± 1.2
265.6 kPa	955.7 ± 1.2
319.3 kPa	955.8 ± 1.2
340.6 kPa	955.9 ± 1.2
347.8 kPa	955.9 ± 1.2
364.8 kPa	955.8 ± 1.2
373.5 kPa	955.8 ± 1.2
449.4 kPa	955.8 ± 1.2
461.8 kPa	955.9 ± 1.2
492.2 kPa	955.9 ± 1.2
510.3 kPa	955.9 ± 1.2
526.4 kPa	955.8 ± 1.2
543.6 kPa	956 ± 1.2
565.9 kPa	955.9 ± 1.2
711.1 kPa	955.8 ± 1.2
779.6 kPa	956.2 ± 1.2
814.3 kPa	956.1 ± 1.2
1089.1 kPa	956.3 ± 1.2
1094 kPa	956.3 ± 1.2
1098.2 kPa	956.3 ± 1.2
1102.3 kPa	956.3 ± 1.2
1107 kPa	956.4 ± 1.2
1111.5 kPa	956.4 ± 1.2
1115.9 kPa	956.4 ± 1.2
1120.4 kPa	956.4 ± 1.2
1125.8 kPa	956.5 ± 1.2
1130.3 kPa	956.4 ± 1.2
1134.8 kPa	956.4 ± 1.2
1139 kPa	956.5 ± 1.2
1144.5 kPa	956.3 ± 1.2
1149 kPa	956.4 ± 1.2
1153.9 kPa	956.4 ± 1.2
1159.3 kPa	956.3 ± 1.2
1168.5 kPa	956.5 ± 1.2
1178.6 kPa	956.4 ± 1.2
1183.8 kPa	956.5 ± 1.2
1189 kPa	956.4 ± 1.2
1195.1 kPa	956.5 ± 1.2
1199.8 kPa	956.4 ± 1.2
1204.6 kPa	956.4 ± 1.2
1209.5 kPa	956.5 ± 1.2
1220.6 kPa	956.5 ± 1.2
1225.4 kPa	956.4 ± 1.2
1231.5 kPa	956.5 ± 1.2
1236.9 kPa	956.4 ± 1.2
1242.6 kPa	956.5 ± 1.2
1253.4 kPa	956.3 ± 1.2
1258.4 kPa	956.6 ± 1.2
1263.5 kPa	956.3 ± 1.2
1275.6 kPa	956.5 ± 1.2
1281.2 kPa	956.4 ± 1.2
1286.7 kPa	956.4 ± 1.2
1293.2 kPa	956.5 ± 1.2
1298.9 kPa	956.4 ± 1.2
1304.6 kPa	956.7 ± 1.2
1311.6 kPa	956.5 ± 1.2
1317.3 kPa	956.6 ± 1.2
